According to US7741479B2, “Urea inhibitors of MAP kinases” (Locus Pharmaceuticals, Inc., priority 2004, dated 2010):
Read-outs that look alike come from different tables or passages of the source.

Target: T1, p38 (Homo sapiens, UniProt Q16539)
T1 construct: made in house
Assay: Protein Kinase Assay (33P incorporation from γ-[33P]ATP into GST-ATF-2 substrate)
Format: biochemical
Settings: for inhibition at 10 µM: compound at 10 μM
Procedure: Human non-activated p38 kinase (MW=43 kDa) was purified according to the protocol described herein. Chemicals were purchased from Calbiochem. Fluorescence characterizations were conducted using a Cary Eclipse (Varian Analytical Instruments, Walnut Creek, Calif.). Research-grade CM5 sensor chips and coupling reagents (N-ethyl-N′-dimethylaminopropylcarbodiimide (EDC) N-hydroxysuccinimide (NHS), and 1 M ethanolamine HCl, pH 8.5) were purchased from Biacore AB (Uppsala, Sweden). The biosensor analyses were conducted using a Biacore 3000 SPR instrument. The kinetic analyses were carried on a Molecular Devices spectrophotometer (Molecular Devices Corporation, CA, USA).
Protein Kinase Assay. The protein kinase activity of p38 was determined by measuring the incorporation of ^33P from γ-[^33P]ATP into the GST-ATF-2 substrate, amino acids 19-96 (Upstate, NY USA). […] Compounds were preincubated with 10 nM p38 for 20 min at 30° C.; the reactions were initiated by the addition of GST-ATF2 and ATP and incubated for 70 min at 30° C. before being stopped by the addition of 10 μL of 600 mM phosphoric acid. The phosphorylated substrate was captured on phosphocellulose 96-well plate (Millipore MAPHNOB 10), washed with 100 mM phosphoric acid, and counted in a BeckmenCoulter LS6500 liquid scintillation counter.

[1] = compound at 3 μM (noted beside the value in Table 1), read-out: Protein Kinase (% Inhibition)
[2] = compound at 3 μM, read-out: Protein Kinase (% Inhibition at 3 μM)

T1 sequence (Q16539 whole entry): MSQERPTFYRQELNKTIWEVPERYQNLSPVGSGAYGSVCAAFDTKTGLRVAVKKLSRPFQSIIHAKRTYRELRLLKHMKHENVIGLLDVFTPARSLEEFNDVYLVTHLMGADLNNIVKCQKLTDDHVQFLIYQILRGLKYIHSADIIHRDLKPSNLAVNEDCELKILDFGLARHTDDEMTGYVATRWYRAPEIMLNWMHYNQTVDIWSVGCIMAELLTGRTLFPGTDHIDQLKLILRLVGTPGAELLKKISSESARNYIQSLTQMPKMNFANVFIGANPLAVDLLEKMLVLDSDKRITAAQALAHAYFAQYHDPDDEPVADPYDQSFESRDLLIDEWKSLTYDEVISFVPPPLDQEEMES

| Structure (SMILES) | inhibition at 10 µM [%] | also measured |
| --- | --- | --- |
| CC(C)(C)c1cc(C(=O)N2CCOCC2)c(NC(=O)Nc2cccc3ccccc23)s1 [Example 16, 1-[5-tert-butyl-3-(morpholine-4-carbonyl)thiophen-2-yl]-3-naphthalen-1-yl-urea] | 26 to 50 |  |
| CC(C)(C)c1cc(C(=O)N2CCSCC2)c(NC(=O)Nc2cccc3ccccc23)s1 [Example 18, 1-[5-tert-butyl-3-(thiomorpholine-4-carbonyl)thiophen-2-yl]-3-naphthalen-1-ylurea] | 51 to 75 |  |
| CC(C)(C)c1cc(CN2CCOCC2)c(NC(=O)Nc2cccc3ccccc23)s1 [Example 19, 1-(5-tert-butyl-3-morpholin-4-ylmethylthiophen-2-yl)-3-naphthalen-1-ylurea] | 51 to 75 |  |
| CC(C)(C)c1cc(CN2CCSCC2)c(NC(=O)Nc2cccc3ccccc23)s1 [Example 20, 1-(5-tert-butyl-3-thiomorpholin-4-ylmethylthiophen-2-yl)-3-naphthalen-1-yl-urea] | 0 to 25 |  |
| CC(C)(C)c1cc(NC(=O)Nc2cccc3ccccc23)n(C(=O)N2CCS(=O)(=O)CC2)n1 [Example 21, 1-[5-tert-butyl-2-(1,1-dioxo-1λ^6-thiomorpholine-4-carbonyl)-2H-pyrazol-3-yl]-3-naphthalen-1-ylurea] | 76 to 100 |  |
| CC(C)(C)c1cc(NC(=O)Nc2ccc3ccccc3c2)n(C(=O)N2CCS(=O)(=O)CC2)n1 [Example 23, 1-[5-tert-butyl-2-(1,1-dioxo-1λ^6-thiomorpholine-4-carbonyl)-2H-pyrazol-3-yl]-3-naphthalen-2-ylurea] | 26 to 50 |  |
| CC(C)(C)c1nc(C(=O)N2CCS(=O)(=O)CC2)c(NC(=O)Nc2cccc3ccccc23)s1 [Example 25, 1-[2-tert-butyl-4-(1,1-dioxo-1λ^6-thiomorpholine-4-carbonyl)thiazol-5-yl]-3-naphthalen-1-ylurea] | 76 to 100 |  |
| CC(C)(C)c1cc(NC(=O)Nc2ccc3ccccc3c2)c(N2CCS(=O)(=O)CC2)s1 [Example 27, 1-[5-tert-butyl-2-(1,1-dioxo-1λ^6-thiomorpholin-4-yl)thiophen-3-yl]-3-naphthalen-2-ylurea] |  | inhibition at 0.5 µM (compound at 0.5 μM (noted beside the value in Table 1)): 51 to 76% |
| CC(C)(C)c1cc(C(=O)N2CCS(=O)(=O)CC2)c(NC(=O)Nc2cccc3cn[nH]c23)s1 [Example 32, 1-[5-tert-butyl-3-(1,1-dioxo-1λ^6-thiomorpholine-4-carbonyl)thiophen-2-yl]-3-(1H-indazol-7-yl)urea] | 26 to 50 |  |
| CC(C)(C)c1cc(C(=O)N2CCS(=O)(=O)CC2)c(NC(=O)Nc2ccc3c(c2)NC(=O)CC3)s1 [Example 33, 1-[5-tert-butyl-3-(1,1-dioxo-1λ^6-thiomorpholine-4-carbonyl)thiophen-2-yl]-3-(2-oxo-1,2,3,4-tetrahydroquinolin-7-yl)urea] | 0 to 25 |  |
| CC(C)(C)c1cc(C(=O)N2CCS(=O)(=O)CC2)c(NC(=O)Nc2ccc(O)c3ccccc23)s1 [Example 34, 1-[5-tert-butyl-3-(1,1-dioxo-1λ^6-thiomorpholine-4-carbonyl)thiophen-2-yl]-3-(4-hydroxynaphthalen-1-yl)urea] | 76 to 100 |  |
| CC(C)(C)c1cc(C(=O)N2CCNC(=O)C2)c(NC(=O)Nc2cccc3ccccc23)s1 [Example 35, 1-[5-tert-butyl-3-(3-oxopiperazine-1-carbonyl)thiophen-2-yl]-3-naphthalen-1-ylurea] | 51 to 75 |  |
| CC(C)(C)c1cc(C(=O)N2CCNS(=O)(=O)CC2)c(NC(=O)Nc2cccc3ccccc23)s1 [Example 37, 1-[5-tert-butyl-3-(1,1-dioxo-1λ^6-[1,2,5]thiadiazepane-5-carbonyl)thiophen-2-yl]-3-naphthalen-1-ylurea] |  | inhibition at 3 µM [1]: 51 to 75% |
| CC(C)(C)c1cc(C(=O)N2CCNS(=O)(=O)CC2)c(NC(=O)Nc2ccc3ccccc3c2)s1 [Example 38, 1-[5-tert-butyl-3-(1,1-dioxo-1λ^6-[1,2,5]thiadiazepane-5-carbonyl)thiophen-2-yl]-3-naphthalen-2-ylurea] |  | inhibition at 3 µM [1]: 76 to 100% |
| CC(C)(C)c1cc(C(=O)N2CCNS(=O)(=O)CC2)c(NC(=O)Nc2ccc(Cl)cc2)s1 [Example 39, 1-[5-tert-butyl-3-(1,1-dioxo-1λ^6-[1,2,5]thiadiazepane-5-carbonyl)thiophen-2-yl]-3-(4-chlorophenyl)urea] |  | inhibition at 3 µM [1]: 76 to 100% |
| CC(C)(C)c1cc(C(=O)N2CC[S@SP2](=O)(=O)CC2)c(NC(=O)Nc2ccc(Br)c3ccccc23)s1 [Example 40, 1-(4-Bromonaphthalen-1-yl)-3-[5-tert-butyl-3-(1,1-dioxo-1λ^6-thiomorpholine-4-carbonyl)thiophen-2-yl]urea] |  | inhibition at 3 µM [1]: 76 to 100% |
| CC(C)(C)c1cc(C(=O)N2CCS(=O)(=O)CC2)c(NC(=O)Nc2ccc(Cl)c3ccccc23)s1 [Example 41, 1-[5-tert-butyl-3-(1,1-dioxo-1λ^6-thiomorpholine-4-carbonyl)thiophen-2-yl]-3-(4-chloronaphthalen-1-yl)urea] |  | inhibition at 3 µM [1]: 76 to 100% |
| CC(C)(C)c1cc(C(=O)N2CCS(=O)(=O)CC2)c(NC(=O)Nc2cccc3nc[nH]c23)s1 [Example 42, 1-(3H-Benzimidazol-4-yl)-3-[5-tert-butyl-3-(1,1-dioxo-1λ^6-thiomorpholine-4-carbonyl)thiophen-2-yl]urea] |  | inhibition at 3 µM [1]: 76 to 100% |
| CC(C)(C)c1cc(C(=O)N2CCS(=O)(=O)CC2)c(NC(=O)Nc2ccc(C#N)c3ccccc23)s1 [Example 43, 1-[5-tert-butyl-3-(1,1-dioxo-1λ^6-thiomorpholine-4-carbonyl)thiophen-2-yl]-3-(4-cyanonaphthalen-1-yl)urea] |  | inhibition at 3 µM [1]: 76 to 100% |
| CC(C)(C)c1cc(C(=O)N2CCNC(=O)CC2)c(NC(=O)Nc2ccc3ccccc3c2)s1 [Example 44, 1-[5-tert-butyl-3-(5-oxo[1,4]diazepane-1-carbonyl)thiophen-2-yl]-3-naphthalen-2-ylurea] | 76 to 100 |  |
| CC(C)(C)c1cc(C(=O)NCCS(C)(=O)=O)c(NC(=O)Nc2cccc3ccccc23)s1 [Example 45, 1-(3-(2-(Methylsulfonyl)ethylcarbamoyl)-5-tert-butylthiophen-2-yl)-3-(naphthalen-1-yl)urea] |  | inhibition at 3 µM [2]: 76 to 100% |
| CC(C)(C)c1cc(C(=O)N2CCNC(=O)CC2)c(NC(=O)Nc2ccc(Cl)cc2)s1 [Example 46, 1-[5-tert-butyl-3-(5-oxo-[1,4]diazepane-1-carbonyl)thiophen-2-yl]-3-(4-chloro-phenyl)urea] |  | inhibition at 3 µM [2]: 76 to 100% |
| CC(C)(C)c1cc(C(=O)N2CCNC(=O)C2)c(NC(=O)Nc2ccc(Cl)cc2)s1 [Example 47, 1-[5-tert-butyl-3-(3-oxopiperazine-1-carbonyl)thiophen-2-yl]-3-(4-chloro-phenyl)urea] |  | inhibition at 3 µM [2]: 76 to 100% |
| CC(C)(C)c1cc(C(=O)N2CCS(=O)(=O)CC2)c(NC(=O)Nc2c[nH]c3ccccc23)s1 [Example 49, 1-[5-tert-butyl-3-(1,1-dioxo-1λ^6-thiomorpholine-4-carbonyl)thiophen-2-yl]-3-(1H-indol-3-yl)urea] |  | inhibition at 3 µM [2]: 51 to 75% |
| CC(C)(C)c1cc(NC(=O)Nc2cccc3ccccc23)c(C(=O)N2CCNC(=O)CC2)s1 [Example 50, 1-[5-tert-butyl-2-(5-oxo-[1,4]diazepane-1-carbonyl)thiophen-3-yl]-3-naphthalen-1-ylurea] |  | inhibition at 3 µM [2]: 76 to 100% |

More lines, main results first:

| inhibition at 10 µM [%] | Structure (SMILES) | also measured |
| --- | --- | --- |
| 76 to 100 | CC(C)(C)c1cc(NC(=O)Nc2ccc(Cl)cc2)n(C(=O)N2CCS(=O)(=O)CC2)n1 [Example 17, 1-[5-tert-butyl-2-(1,1-dioxo-1λ^6-thiomorpholine-4-carbonyl)-2H-pyrazol-3-yl]-3-(4-chlorophenyl)urea] |  |
| 26 to 50 | CC(C)(C)c1cc(C(=O)N2CC[S+]([O-])CC2)c(NC(=O)Nc2cccc3ccccc23)s1 [Example 22, 1-[5-tert-butyl-3-(1-oxo-1λ^4-thiomorpholine-4-carbonyl)thiophen-2-yl]-3-naphthalen-1-ylurea] |  |
| 51 to 75 | CC(C)(C)c1nc(C(=O)N2CCS(=O)(=O)CC2)c(NC(=O)Nc2ccc3ccccc3c2)s1 [Example 26, 1-[2-tert-butyl-4-(1,1-dioxo-1λ^6-thiomorpholine-4-carbonyl)thiazol-5-yl]-3-naphthalen-2-ylurea] |  |
| 0 to 25 | CC(C)(C)c1cc(C(=O)N2CCS(=O)(=O)CC2)c(NC(=O)Nc2ccc(Oc3ccccc3)cc2)s1 [Example 28, 1-[5-tert-butyl-3-(1,1-dioxo-1λ^6-thiomorpholine-4-carbonyl)thiophen-2-yl]-3-(4-phenoxyphenyl)urea] |  |
| 0 to 25 | CC(C)(C)c1cc(C(=O)N2CCS(=O)(=O)CC2)c(NC(=O)Nc2cccc3cccnc23)s1 [Example 29, 1-[5-tert-butyl-3-(1,1-dioxo-1λ^6-thiomorpholine-4-carbonyl)thiophen-2-yl]-3-quinolin-8-ylurea] |  |
| 51 to 75 | CC(C)(C)c1cc(C(=O)N2CCS(=O)(=O)CC2)c(NC(=O)NC2CCc3ccccc32)s1 (centres unmarked) [Example 30, 1-[5-tert-butyl-3-(1,1-dioxo-1λ^6-thiomorpholine-4-carbonyl)thiophen-2-yl]-3-indan-1-ylurea] |  |
| 51 to 75 | CC(C)(C)c1cc(C(=O)N2CCS(=O)(=O)CC2)c(NC(=O)Nc2ccnc3ccccc23)s1 [Example 31, 1-[5-tert-butyl-3-(1,1-dioxo-1λ^6-thiomorpholine-4-carbonyl)thiophen-2-yl]-3-quinolin-4-ylurea] |  |
